Measurements: patent publication US9822108B2, “Antimicrobial agents” (RUTGERS, THE STATE UNIVERSITY OF NEW JERSEY, priority 2012, dated 2017)
In brackets after ≈: the same amount, converted by molar mass.

Key:
[1] = tested on: methicillin-resistant Staphylococcus aureus (MRSA); test: Antibacterial assay (Test C, broth microdilution MIC) against MRSA; assay type: cell-based; details: minimal inhibitory concentration, 37° C., growth read after 24 to 48 hours at OD 600 nm, read-out: MRSA (MIC ug/ml)
Procedure: (§1) Test C. Antibacterial Assay.
(§2) Antibacterial activity can be determined as per Clinical and Laboratory Standards Institute (CLSI) guidelines using a broth microdilution assay in which log-phase bacteria are grown at 37° C. in appropriate medium containing two-fold serial dilutions of a compound to yield final concentrations ranging from 256 to 0.06 μg/mL. For determination of minimal inhibitory concentration (MIC) values, bacterial growth is monitored after 24 to 48 hours by measuring optical density at 600 nm.
(§3) Using a procedure similar to Test C, representative compounds of the invention were tested against methicillin-susceptible Staphylococcus aureus (MSSA) and methicillin-resistant Staphylococcus aureus (MRSA).

[2] = tested on: methicillin-susceptible Staphylococcus aureus (MSSA); test: Antibacterial assay (Test C, broth microdilution MIC) against MSSA; assay type: cell-based; details: minimal inhibitory concentration, 37° C., growth read after 24 to 48 hours at OD 600 nm, read-out: MSSA (MIC ug/ml)
Procedure: as §1, §2, §3

Row | Compound | MIC [1] [µg/mL] | MIC [2] [µg/mL]
1 | CC(C)(C)c1ccc(-c2cc(C(=O)NCCN)cc(-c3cnc4ccccc4n3)c2)cc1 [Example 9] | 4 (≈ 9.42 µM) | 4 (≈ 9.42 µM)
2 | CC(C)(C)c1ccc(-c2cnc3c(CNC(=N)N)cccc3n2)cc1 [Example 10] | 2 (≈ 6 µM) | 2 (≈ 6 µM)
3 | CC(C)(C)c1ccc(-c2ncnc3c(CNC(=N)N)cccc23)cc1 [Example 12] | 4 (≈ 12 µM) | 2 (≈ 6 µM)
4 | CC(=N)NCc1cccc2c(-c3ccc(C(C)(C)C)cc3)ncnc12 [Example 13] | 64 (≈ 193 µM) | 32 (≈ 96.3 µM)
5 | CC(C)(C)c1ccc(-c2ncnc3c(CN)cccc23)cc1 [Example 14] | 64 (≈ 220 µM) | 32 (≈ 110 µM)
6 | CC(C)(C)c1ccc(-c2cccc3c(CNC(=N)N)ncnc23)cc1 [Example 16] | 64 (≈ 192 µM) | 8 (≈ 24 µM)
7 | CC(C)(C)c1ccc(-c2ccnc3c(CNC(=N)N)ccnc23)cc1 [Example 17] | 8 (≈ 24 µM) | 4 (≈ 12 µM)
8 | CC(C)(C)c1ccc(-c2ccnc3c(CN)ccnc23)cc1 [Example 18] | > 64 | > 64
9 | CC(C)(C)c1ccc(-c2nnc(CNC(=N)N)c3ccccc23)cc1 [Example 19] | – | 16 (≈ 48 µM)
10 | CC(C)(C)c1cccc(-c2cnc3cc(CNC(=N)N)ccc3n2)c1 [Example 22] | 8 (≈ 24 µM) | 4 (≈ 12 µM)

Continued, values first:

Row | MIC [1] [µg/mL] | MIC [2] [µg/mL] | Compound
11 | 8 | 2 | C[n+]1cc(-c2ccccc2)nc2ccccc21 [Example 1]
12 | 4 | 2 | C[n+]1cc(-c2cccc(F)c2)nc2ccccc21 [Example 2]
13 | 0.25 | 0.25 | C[n+]1cc(-c2cccc(-c3ccccc3)c2)nc2ccccc21 [Example 3]
14 | 1 | 0.5 | C[n+]1cc(-c2cccc(C(C)(C)C)c2)nc2ccccc21 [Example 4]
15 | 1 | 0.5 | C[n+]1cc(-c2ccc(C(C)(C)C)cc2)nc2ccccc21 [Example 5]
16 | 1 | 0.5 | COC(=O)c1cc(-c2ccc(C(C)(C)C)cc2)cc(-c2c[n+](C)c3ccccc3n2)c1 [Example 6]
17 | 2 | 2 | C[n+]1cc(-c2cc(C(N)=O)cc(-c3ccc(C(C)(C)C)cc3)c2)nc2ccccc21 [Example 7]
18 | 4 | 4 | C[n+]1cc(-c2cc(C(=O)NCCO)cc(-c3ccc(C(C)(C)C)cc3)c2)nc2ccccc21 [Example 8]
19 | 2 (≈ 6 µM) | 1 (≈ 3 µM) | CC(C)(C)c1cccc(-c2cnc3c(CNC(=N)N)cccc3n2)c1 [Example 11]
20 | > 64 | > 64 | Cc1cccc(-c2nc3ccccc3nc2NCCN)c1 [Example 15]
21 | – | 4 (≈ 12 µM) | CC(C)(C)c1cccc(-c2nc(CNC(=N)N)c3ccccc3n2)c1 [Example 20]
22 | 2 (≈ 6 µM) | 2 (≈ 6 µM) | CC(C)(C)c1cccc(-c2cnc3cccc(CNC(=N)N)c3n2)c1 [Example 21]
